In patent EP1463487B1, “LIPOSOMAL DELIVERY OF VITAMIN E BASED COMPOUNDS” (RESEARCH DEVELOPMENT FOUNDATION, priority 2001, dated 2003):
Entries after “also recorded” stand apart in the source; their conditions may differ.

Legend:
[1] = test system: 66 cl.4-GFP cells; experiment: Visible lung metastases of 66 cl.4-GFP tumors in Balb/c mice; format: in vivo; details: daily aerosol for 17 days; counted visually at sacrifice
From the text: Metastastic lesions in the five lung lobes were counted visually at time of sacrifice. Fluorescent green micro-metastatic cancer cell colonies in the left lung lobe and lymph nodes were counted using a Nikon fluorescence microscope (TE-200) with a 20 x objective (200 x magnification) and Image-Pro Plus (version 4.1; Media Cybernetics, Silver Spring, MD) software associated with the microscope. Fluorescent lesions were separated into three size grouping: <5 µm , 5-10 µm and >10 µm.

[2] = test system: MDA-MB-435 GFP FL cells; experiment: Tumor growth of MDA-MB-435 GFP FL breast cancer cells in nude mice; format: in vivo, Nu/Nu athymic nude mice; details: liposome gavage, 8 mg compound per day, 2 times per day; day 27
Experimental: Animals were given a total of 8 mg compound per day. […] Alpha-TEA liposome gavage reduced tumor growth by 68, 75, 78, 79 and 79% on days 27, 29, 31, 33, and 35, respectively (Fig. 15).
Animals were gavaged 3ppm methylselenocysteine (MSC) in water, α-TEA in liposome via aerosol, or gavaged 10 mg/kg b.w. trans-resveratrol (t-RES) in first 1:1, EtOH: physiological saline, and starting at day 24, 6.5% EtOH and 93.5% Neobee oil. A combination group was treated with each of the above three compounds, and a control group was treated with aerosolized liposome, 100 µl water, and 50 µl of the t-Res solvent. Animals were treated seven days a week, for 35+ days.

[3] = Body weight and long term safety of α-TEA treated mice; format: in vivo, Balb/c mice
Experimental: 50 mice were assigned (10 per group) to aerosol treatment, aerosol control, oral treatment, oral control, or to the no treatment group so that the average tumor volume for all groups were closely matched. […] Tumors were measured using calipers every other day, and volumes were calculated using the formula: volume (mm^3) = [width (mm)^2 X length (mm)] /2. Body weights were determined weekly.
Balb/c mice, 10/group (4 groups, 40 mice total) are inoculated with 200,000 66 cl.4 GFP cells as described on day 0. Nine days after tumor inoculation, treatments groups are initiated: Aerosol Treatment (TX) = aerosol delivery of α-TEA liposome (5 mg/mouse)/daily through day 23. Aerosol Control = Aerosol delivery of liposome composition only daily through day 23. Gavage treatment = gavage administration of α-TEA at 5 mg/mouse in ethanol/peanut oil daily through day 23. Gavage control = gavage administration of ethanol/peanut oil only through day 23. Mice were weighed at the initiation of treatment (day 9) and thereafter on days 13, 16, 20, and 23 (Fig. 6). Data are presented as the mean +/- standard deviation.

[4] = test system: 66 cl.4-GFP tumors; experiment: TUNEL assay for apoptosis in tumor sections in vivo; parameters: species or system Balb/c mice
From the text: Deparaffinized sections (5 µm) of tumor tissue were used to assess apoptosis using reagents supplied in the ApopTag In Situ Apoptosis Detection kit (Intergen, Purchase, NY) according to the manufacturer's instructions. Nuclei that stained brown were scored as positive for apoptosis and those that stained blue were scored as negative. At least sixteen 400X microscopic fields were scored per tumor. Data are presented as the mean ± S. E number of apoptotic cells counted in three separate tumors from each group. Pictures of tumor tissue were taken at 1000X magnification.

Compound: Cc1c(C)c2c(c(C)c1OCC(=O)O)CC[C@@](C)(CCC[C@H](C)CCC[C@H](C)CCCC(C)C)O2 [α-TEA, 2,5,7,8-tetramethyl-(2R-(4R,8R,12-trimethyltridecyl)chroman-6-yloxy) acetic acid]
- No. Visible Lung Tumor Foci/Animal [1]: No visible tumors were seen
- reduced tumor growth [2]: 68%
- long term adverse effects ([3]; non-tumor bearing mice treated by aerosol or gavage for 17 days, kept eleven months): did not show any adverse effects
- body weight ([3]; tumor bearing mice, α-TEA liposome aerosol or gavage in ethanol/peanut oil, 5 mg/mouse daily, versus controls): no significant weight differences; also recorded: No differences in mean body weights
- apoptotic cells/field (mean ± S. E.) ([4]; liposomal α-TEA/aerosol treatment, three tumors): 2.04±0.23 apoptotic cells/field
- mean apoptotic values (TUNEL) increased ([4]; transplantable syngeneic mouse mammary cancer model, in comparison to controls): 30%
